Source: US20250171438A1 (Agios Pharmaceuticals, Inc., priority 2022, published 2025)

Each compound was assayed against T1, human PAH with the R408W mutation (Homo sapiens, UniProt P00439, R408W) (assay: Cell Based Phenylalanine Flux Assay). Settings: A375 cells expressing human R408W PAH; 24 hrs compound incubation; 13C-Tyrosine by LC-MS; average where tested multiple times; read-out: AC50.
T1 construct: expressed in transfected cells
T1 sequence (P00439 1-452 R408W): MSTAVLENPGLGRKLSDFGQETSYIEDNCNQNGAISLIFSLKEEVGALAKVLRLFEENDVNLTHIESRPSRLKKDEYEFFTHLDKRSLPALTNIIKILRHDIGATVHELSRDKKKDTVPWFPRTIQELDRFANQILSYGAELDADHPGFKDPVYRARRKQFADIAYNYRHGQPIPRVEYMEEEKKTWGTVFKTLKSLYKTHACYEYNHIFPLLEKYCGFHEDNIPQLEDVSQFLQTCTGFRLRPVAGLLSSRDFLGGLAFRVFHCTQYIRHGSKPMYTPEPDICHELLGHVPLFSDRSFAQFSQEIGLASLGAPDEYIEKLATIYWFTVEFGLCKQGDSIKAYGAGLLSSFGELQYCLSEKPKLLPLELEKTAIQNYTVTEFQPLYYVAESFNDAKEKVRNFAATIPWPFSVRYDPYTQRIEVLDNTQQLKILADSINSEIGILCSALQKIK
Set-up: scale not given here
`COc1cccc(CCCC(=O)N2CCc3[nH]cnc3[C@@H]2c2nc3ccccc3[nH]2)c1` [Example 918, (R)-1-(4-(1H-benzo[d]imidazol-2-yl)-6,7-dihydro-1H-imidazo[4,5-c]pyridin-5(4H)-yl)-4-(3-methoxyphenyl)butan-1-one] showed an AC50 greater than 5 µM.
Work on `Cn1ncc(Cl)c1C(=O)N1CCc2[nH]cnc2[C@@H]1c1nc2c(F)cccc2s1` [Example 1734, (R)-(4-chloro-1-methyl-1H-pyrazol-5-yl)(4-(4-fluorobenzo[d]thiazol-2-yl)-6,7-dihydro-1H-imidazo[4,5-c]pyridin-5(4H)-yl)methanone] yielded an AC50 of 0.5 to 1 µM.
`O=C(c1oc(-c2ccccn2)nc1C(F)(F)F)N1CCc2[nH]cnc2[C@@H]1c1nc2c(F)cccc2s1` [Example 1612, (R)-(4-(4-fluorobenzo[d]thiazol-2-yl)-6,7-dihydro-1H-imidazo[4,5-c]pyridin-5(4H)-yl)(2-(pyridin-2-yl)-4-(trifluoromethyl)oxazol-5-yl)methanone] was tested, and the AC50 was less than 0.5 µM.
In the case of `CC(C)(F)c1ncc(C(=O)N2CCc3[nH]cnc3[C@@H]2c2nc3ccccc3s2)s1` [Example 1464, (R)-(4-(benzo[d]thiazol-2-yl)-6,7-dihydro-1H-imidazo[4,5-c]pyridin-5(4H)-yl)(2-(2-fluoropropan-2-yl)thiazol-5-yl)methanone], the AC50 is reported as 1 to 5 µM.
Work on `O=C(c1cnn2ccccc12)N1CCc2[nH]cnc2[C@@H]1c1nc2ccccc2[nH]1` [Example 922, (R)-(4-(1H-benzo[d]imidazol-2-yl)-6,7-dihydro-1H-imidazo[4,5-c]pyridin-5(4H)-yl)(pyrazolo[1,5-a]pyridin-3-yl)methanone] yielded an AC50 greater than 5 µM.
`O=C([C@@H]1CC1(F)F)N1CCc2[nH]cnc2[C@H]1c1nc2c(F)cccc2s1` [Example 1645] showed an AC50 of 0.5 to 1 µM.
`Cn1ncc(C(=O)N2CCc3[nH]cnc3[C@H]2c2nc3c(F)cccc3s2)c1C(F)F` [Example 1743, (S)-(5-(difluoromethyl)-1-methyl-1H-pyrazol-4-yl)(4-(4-fluorobenzo[d]thiazol-2-yl)-6,7-dihydro-1H-imidazo[4,5-c]pyridin-5(4H)-yl)methanone] showed an AC50 of 0.5 to 1 µM.
`Cc1nc(C2(O)CC2)oc1C(=O)N1CCc2[nH]cnc2[C@@H]1c1nc2c(F)cccc2s1` [Example 1950, (R)-(4-(4-fluorobenzo[d]thiazol-2-yl)-6,7-dihydro-1H-imidazo[4,5-c]pyridin-5(4H)-yl)(2-(1-hydroxycyclopropyl)-4-methyloxazol-5-yl)methanone] gave an AC50 greater than 5 µM.
`C[C@@H]1CN(C(=O)c2nnc(-c3ccc(F)cn3)o2)[C@@H](c2nc3ccccc3s2)c2nc[nH]c21` [Example 1753, ((4R,7R)-4-(benzo[d]thiazol-2-yl)-7-methyl-6,7-dihydro-1H-imidazo[4,5-c]pyridin-5(4H)-yl)(5-(5-fluoropyridin-2-yl)-1,3,4-oxadiazol-2-yl)methanone] showed an AC50 of 1 to 5 µM.
Work on `CN1CCN(c2nc(Br)c(C(=O)N3CCc4[nH]cnc4[C@H]3c3nc4c(F)cccc4s3)o2)CC1` [Example 2031, (S)-(4-bromo-2-(4-methylpiperazin-1-yl)oxazol-5-yl)(4-(4-fluorobenzo[d]thiazol-2-yl)-6,7-dihydro-1H-imidazo[4,5-c]pyridin-5(4H)-yl)methanone] yielded an AC50 of less than 0.5 µM.
In the case of `Cc1cnc(C(=O)N2CCc3[nH]cnc3[C@H]2c2nc3ccccc3s2)s1` [Example 1055], the AC50 is reported as 0.5 to 1 µM.
In the case of `O=C(c1nnc(-c2cn[nH]c2)o1)N1CCc2[nH]cnc2[C@@H]1c1nc2ccccc2s1` [Example 1922, (R)-(5-(1H-pyrazol-4-yl)-1,3,4-oxadiazol-2-yl)(4-(benzo[d]thiazol-2-yl)-6,7-dihydro-1H-imidazo[4,5-c]pyridin-5(4H)-yl)methanone], the AC50 is reported as 1 to 5 µM.
In the case of `O=C(Cc1ncc(C2CC2)s1)N1CCc2[nH]cnc2[C@@H]1c1nc2ccccc2s1` [Example 1460, (R)-1-(4-(benzo[d]thiazol-2-yl)-6,7-dihydro-1H-imidazo[4,5-c]pyridin-5(4H)-yl)-2-(5-cyclopropylthiazol-2-yl)ethanone], the AC50 is reported as 1 to 5 µM.
For `O=C(c1ccns1)N1CCc2[nH]cnc2[C@@H]1c1nc2ccccc2s1` [Example 1052, (R)-(4-(benzo[d]thiazol-2-yl)-6,7-dihydro-1H-imidazo[4,5-c]pyridin-5(4H)-yl)(isothiazol-5-yl)methanone], the AC50 was greater than 5 µM.
Work on `O=C(Cc1nccs1)N1CCc2[nH]cnc2[C@H]1c1nc2cccc(Br)c2s1` [Example 1176, (S)-1-(4-(7-bromobenzo[d]thiazol-2-yl)-6,7-dihydro-1H-imidazo[4,5-c]pyridin-5(4H)-yl)-2-(thiazol-2-yl)ethanone] yielded an AC50 of 0.5 to 1 µM.
`O=C(CCC1CC1)N1CCc2[nH]cnc2[C@@H]1c1nc2ccc(F)cc2[nH]1` [Example 961, (R)-3-cyclopropyl-1-(4-(6-fluoro-1H-benzo[d]imidazol-2-yl)-6,7-dihydro-1H-imidazo[4,5-c]pyridin-5(4H)-yl)propan-1-one] showed an AC50 greater than 5 µM.
In the case of `O=C(c1nnc(-c2cnn(S(=O)(=O)C3CC3)c2)o1)N1CCc2[nH]cnc2[C@H]1c1nc2ccccc2s1` [Example 1939], the AC50 is reported as 0.5 to 1 µM.
`COCCc1ccc2c(C(=O)N3CCc4[nH]cnc4[C@@H]3c3nc4ccccc4s3)cnn2c1` [Example 1452, (R)-(4-(benzo[d]thiazol-2-yl)-6,7-dihydro-1H-imidazo[4,5-c]pyridin-5(4H)-yl)(6-(2-methoxyethyl)pyrazolo[1,5-a]pyridin-3-yl)methanone] showed an AC50 greater than 5 µM.
Compound `N#Cc1nn2cc(Br)ccc2c1C(=O)N1CCc2[nH]cnc2[C@H]1c1nc2ccccc2s1` [Example 1779, (S)-3-(4-(benzo[d]thiazol-2-yl)-4,5,6,7-tetrahydro-1H-imidazo[4,5-c]pyridine-5-carbonyl)-6-bromopyrazolo[1,5-a]pyridine-2-carbonitrile] has an AC50 of less than 0.5 µM.
`Cc1cc(-c2nnc(C(=O)N3CCc4[nH]cnc4[C@H]3c3nc4ccccc4s3)o2)nn1C` [Example 1944] was tested, and the AC50 was 0.5 to 1 µM.
For `O=C(c1oc(CCN2CC(F)C2)nc1C(F)(F)F)N1CCc2[nH]cnc2[C@@H]1c1nc2c(F)cccc2s1` [Example 1666, (R)-(2-(2-(3-fluoroazetidin-1-yl)ethyl)-4-(trifluoromethyl)oxazol-5-yl)(4-(4-fluorobenzo[d]thiazol-2-yl)-6,7-dihydro-1H-imidazo[4,5-c]pyridin-5(4H)-yl)methanone], the AC50 was less than 0.5 µM.
`O=C(c1cnn2ccc(Br)cc12)N1CCc2[nH]cnc2[C@@H]1c1nc2c(F)cccc2s1` [Example 1172, (R)-(5-bromopyrazolo[1,5-a]pyridin-3-yl)(4-(4-fluorobenzo[d]thiazol-2-yl)-6,7-dihydro-1H-imidazo[4,5-c]pyridin-5(4H)-yl)methanone] showed an AC50 of 0.5 to 1 µM.
Compound `CC1(C)CCC(c2ncc(C(=O)N3CCc4[nH]cnc4[C@H]3c3nc4ccccc4s3)s2)CC1` [Example 1353] has an AC50 of less than 0.5 µM.
`CN(C)CCc1nc(C(F)(F)F)c(C(=O)N2CCc3[nH]cnc3[C@H]2c2nc3c(F)cccc3s2)o1` [Example 1675] showed an AC50 of less than 0.5 µM.
With `O=C(CC1CC(F)C1)N1CCc2[nH]cnc2[C@@H]1c1nc2ccccc2s1` (stereo partly drawn) [Example 1246, (R)-1-(4-(benzo[d]thiazol-2-yl)-6,7-dihydro-1H-imidazo[4,5-c]pyridin-5(4H)-yl)-2-(3-fluorocyclobutyl)ethanone] the AC50 was 1 to 5 µM.
In the case of `CC(C)(C)CC(=O)N1CCc2[nH]cnc2[C@H]1c1nc2ccccc2[nH]1` [Example 930, (S)-1-(4-(1H-benzo[d]imidazol-2-yl)-6,7-dihydro-1H-imidazo[4,5-c]pyridin-5(4H)-yl)-3,3-dimethylbutan-1-one], the AC50 is reported as less than 0.5 µM.
In the case of `O=C(c1nnc(-c2ccccn2)o1)N1CCc2[nH]cnc2[C@H]1c1nc2ccc(F)cc2s1` [Example 1720, (S)-(4-(6-fluorobenzo[d]thiazol-2-yl)-6,7-dihydro-1H-imidazo[4,5-c]pyridin-5(4H)-yl)(5-(pyridin-2-yl)-1,3,4-oxadiazol-2-yl)methanone], the AC50 is reported as less than 0.5 µM.
Work on `Nc1nc(C(F)(F)F)c(C(=O)N2CCc3[nH]cnc3[C@H]2c2nc3ccccc3s2)o1` [Example 1533] yielded an AC50 of less than 0.5 µM.

Same assay, conditions: A375 cells expressing human R408W PAH; 24 hrs with compound; 13C-Tyrosine by LC-MS; average where tested multiple times
With `CC(C)(O)c1nc(C(F)F)c(C(=O)N2CCc3[nH]cnc3C2c2nc3ccccc3[nH]2)o1` (stereo not drawn) the AC50 was “E, E”.
With `Cn1cc(-c2nc(C(F)(F)F)c(C(=O)N3CCc4[nH]cnc4C3c3nc4ccccc4s3)o2)cn1` (stereo not drawn) the AC50 was “E, E”.

Same assay, conditions: A375 cells expressing human R408W PAH; 24 hrs with compound; 13C-Tyrosine by LC-MS; average where tested multiple times; read-out: AC50
With `O=C(c1cnco1)N1CCc2[nH]cnc2C1c1nc2cc(F)ccc2s1` (stereo not drawn) the AC50 was 1 to 5 µM.
Compound `Cc1nc(N2CCN(C)CC2)oc1C(=O)N1CCc2[nH]cnc2C1c1nc2c(F)cccc2s1` (stereo not drawn) has an AC50 greater than 5 µM.
`Fc1ccc2sc(CN3CCc4[nH]cnc4C3c3nc4cc(F)ccc4s3)nc2c1` (stereo not drawn) showed an AC50 greater than 5 µM.
With `O=C(c1cnn2ccccc12)N1CCc2[nH]cnc2C1c1nc2ccc(F)cc2[nH]1` (stereo not drawn) the AC50 was 1 to 5 µM.
`O=C(c1nc2ccccc2s1)N1CCc2[nH]cnc2C1c1nc2cc(F)ccc2s1` (stereo not drawn) was tested, and the AC50 was greater than 5 µM.
In the case of `COCCc1ncc(C(=O)N2CCc3[nH]cnc3C2c2nc3ccccc3s2)o1` (stereo not drawn), the AC50 is reported as greater than 5 µM.
`O=C(C1CC1)N1CCc2[nH]cnc2C1c1nc2c(F)cccc2s1` (stereo not drawn) showed an AC50 of 1 to 5 µM.
Work on `CN(C)Cc1ncc(C(=O)N2CCc3[nH]cnc3C2c2nc3ccccc3s2)o1` (stereo not drawn) yielded an AC50 of 1 to 5 µM.
`Cc1nnc(CCC(=O)N2CCc3[nH]cnc3C2c2nc3ccc(Br)cc3[nH]2)s1` (stereo not drawn) showed an AC50 greater than 5 µM.
With `Clc1ccc2nc(C3c4nc[nH]c4CCN3Cc3nccs3)[nH]c2c1` (stereo not drawn) the AC50 was greater than 5 µM.
For `O=C(C1CC1)N1CCc2[nH]cnc2C1c1nc2ccc(F)cc2[nH]1` (stereo not drawn), the AC50 was greater than 5 µM.
Compound `O=C(c1nccs1)N1CCc2[nH]cnc2C1c1nc2ccc(Cl)cc2[nH]1` (stereo not drawn) has an AC50 of 1 to 5 µM.
